# Results as given in patent publication US11654196B2, “Dosing regimens for echinocandin class compounds” (priority 2012, dated 2023).
# Like-named read-outs stand apart in the source and are kept apart here. *1 amine or outer side, *2 acyl side, *3 side chain or, on linkers, in order; H or OH if unused. Where a SMILES comes first, the peptide text is derived from it. Bridges are numbered along the chain shown (N, C = ends). [ ]: non-standard residue; d: D form. The star is where a group is joined. pTerphenylCO(4''-OnC5H11) = CCCCCOc1ccc(-c2ccc(-c3ccc(C(=O)*)cc3)cc2)cc1; Orn(4R-OH,5R-OH) = O=C([C@H](C[C@@H](O)[C@@H](O)N[*:3])N[*:1])[*:2]; hTyr(3S-OH,4S-OH) = N[C@H](C(=O)O)[C@H](O)[C@@H](O)c1ccc(O)cc1; Pro(3S-OH,4S-Me) = C[C@H]1CN[C@H](C(=O)O)[C@H]1O; Hyp = O=C(O)[C@@H]1C[C@@H](O)CN1
# Columns and labels:
# [1] = Solubility in aqueous media of varying pH; format: physicochemical; conditions: for solubility: ambient temperature, compound 22 as acetate salt, salt free equivalent
# [2] = Circulating half-life in rat; format: in vivo; conditions: assays conducted by applicant
# Stability in dog plasma = format: in vitro ADME
# Procedure: (§1) Stock solutions of compound 22 and anidulafungin were prepared in DMSO at a concentration of 1 mg/mL. Plasma samples were prepared by mixing plasma with 10% volume of 1 M sodium phosphate, pH 7.4, to minimize pH fluctuation, and stock solution to produce plasma samples containing approximately 10,000 ng/mL compound 22 or anidulafungin. For the stability experiments in PBS buffer, plasma was replaced with phosphate buffered saline, pH 7.4. The DMSO concentration was 1% in the final incubation. Multiple individual aliquots (0.5 mL each) were prepared, capped, and incubated at 37° C. At each stability time point, the reaction was stopped by removing the sample from the incubator and adding 0.5 mL of acetonitrile containing internal standard. Samples were centrifuged for approximately 5 minutes at 10000 rpm to precipitate the proteins. Stability was measured in five different matrices (i.e. rat plasma, dog plasma, monkey plasma, human plasma, and PBS). An aliquot (100 μL) of supernatant of each sample was assayed by HPLC. The percentage of anidulafungin and compound 22 remaining at each time point was calculated by dividing the peak area ratio at each time point by the peak area ratio at time zero.
# [3] = Pharmacokinetics (oral bioavailability) following oral administration in beagle dogs; format: in vivo; parameters: key to Improvement (ratio of % oral bioavailability to saline): NI = no improvement in oral bioavailability in comparison to saline; conditions: for % BA in saline: oral about 7-10 mg/kg, formulation 11 (saline); for % BA / Improvement (ratio of % oral bioavailability to saline): oral
# Procedure: Echinocandin class compounds were administered to beagle dogs weighing approximately 6-10 kg. Each animal received the appropriate prepared test article in a single oral capsule dose at a target dose level of about 7-10 mg/kg. Immediately after dosing, each animal was offered 20 mL-30 mL of water orally (Groups 1-4) or 30 mL of water orally to assist in swallowing the capsule.
# Animals were treated and blood samples were drawn and analyzed as provided in Example 1.
# The bioavailability of each oral dose formulation was estimated by comparison to intravenous plasma concentration data in dogs from Example 1. The results provided in Table 3 show the oral bioavailability for the echinocandin class compound in saline (formulation 11), and the improvement over saline with the use of a formulation of the invention.
# [4] = Stability in monkey plasma; format: in vitro ADME
# Procedure: as §1
# [5] = Stability in human plasma; format: in vitro ADME
# Procedure: as §1
# [6] = Circulating half-life in chimpanzee; format: in vivo; conditions: assays conducted by applicant
# [7] = Circulating half-life in monkey; format: in vivo; conditions: assays conducted by applicant
# Stability in rat plasma = format: in vitro ADME
# Procedure: as §1
# [8] = Pharmacokinetics following intravenous administration in beagle dogs; format: in vivo; conditions: 1.4 mg/kg IV slow bolus
# Procedure: Echinocandin class compounds were administered to beagle dogs weighing approximately 6-10 kg. Each compound was dosed at 1.4 mg/kg in aqueous saline (with or without 0.5% Tween) over course of 1-10 minutes. […] The dogs were fasted at least 12 hours prior to each dosing and offered food after the 4-hour blood sample was taken; water was withheld for 1 hour prior to and 4 hours following each dosing event. The dose for each animal was based on its most recent body weight. The test article was injected intravenously via a catheter placed in the cephalic vein as a slow bolus.
# Blood was collected via the jugular vein. All blood samples (1 mL each) were collected into K3EDTA tubes. Following blood collection, the samples were immediately inverted several times and were held on wet ice pending centrifugation. The samples were centrifuged within 30 minutes of collection under refrigeration (˜5° C. for 10 minutes at 2000 g) to obtain plasma. The plasma was frozen immediately on dry ice after separation. The plasma samples were stored at approximately ˜70° C. until analysis.
# Plasma (100 μL) was precipitated with 400 μL of 0.1% formic acid in acetonitrile containing the internal standard (100 ng/mL pneumocandin). The samples were then capped and vortexed for about 30 seconds followed by centrifugation at 14,000 rpm at room temperature for 10 minutes. Following centrifugation 200 μL of supernatant was transferred to plastic autosampler vials containing 200 μL of 0.1% formic acid in water and vortexed. Samples were then analyzed by LCMSMS.
# All pharmacokinetic calculations were performed using WinNonlin version 4.1 (Pharsight Corp) by noncompartmental analysis.
# [9] = in vivo, read-out: Half-life (converted)
smiles,measurement,setting,value
"CCCCCOc1ccc(-c2ccc(-c3ccc(C(=O)N[C@H]4C[C@@H](O)[C@@H](O)NC(=O)[C@@H]5[C@@H](O)[C@@H](C)CN5C(=O)[C@H]([C@@H](C)O)NC(=O)[C@H]([C@H](O)[C@@H](O)c5ccc(O)cc5)NC(=O)[C@@H]5C[C@@H](O)CN5C(=O)[C@H]([C@@H](C)O)NC4=O)cc3)cc2)cc1 [Anidulafungin, anidulafungin, reference compound] ({pTerphenylCO(4''-OnC5H11)}-[Orn(4R-OH,5R-OH)]T[Hyp][hTyr(3S-OH,4S-OH)]T[Pro(3S-OH,4S-Me)]; lactam 1-C)",solubility,"[1]; Sterile Water for injection, read-out: Solubility",< 0.01 mg/mL
same,solubility,"[1]; aqueous buffer, Acetate buffer (0.01M, pH 4.5), read-out: Solubility",< 0.01 mg/mL
same,solubility,"[1]; aqueous buffer, Acetate buffer (0.01M, pH 5.5), read-out: Solubility",< 0.01 mg/mL
same,solubility,"[1]; aqueous buffer, Tris buffer (0.01M, pH 8.5), read-out: Solubility",< 0.01 mg/mL
same,solubility,"[1]; aqueous with cosolvent or surfactant or cyclodextrin, 90% Water:10% glycerol, read-out: Solubility",< 0.01 mg/mL
same,Half-life,[2]; [9],22 h
same,% remaining,"Stability in dog plasma; dog plasma, 37° C., 0 h",100%
same,% remaining,"Stability in dog plasma; dog plasma, 37° C., 1 h",100%
same,% remaining,"Stability in dog plasma; dog plasma, 37° C., 2 h",94.8%
same,% remaining,"Stability in dog plasma; dog plasma, 37° C., 4 h",77.1%
same,% remaining,"Stability in dog plasma; dog plasma, 37° C., 8 h",81.1%
same,% remaining,"Stability in dog plasma; dog plasma, 37° C., 21 h",47.2%
same,% remaining,"Stability in dog plasma; dog plasma, 37° C., 44 h",14.6%
same,% BA in saline,[3],7.80%
same,% BA,[3]; formulation 1,(14.3%)
same,Improvement (ratio of % oral bioavailability to saline),[3]; formulation 1,1.8
same,Improvement (ratio of % oral bioavailability to saline),[3]; formulation 2,NI
same,% BA,[3]; formulation 3,(9.80%)
same,Improvement (ratio of % oral bioavailability to saline),[3]; formulation 3,1.3
same,Improvement (ratio of % oral bioavailability to saline),[3]; formulation 4,NI^4
same,% BA,[3]; formulation 5,(16.5%)
same,Improvement (ratio of % oral bioavailability to saline),[3]; formulation 5,2.1
same,Improvement (ratio of % oral bioavailability to saline),[3]; formulation 6,NI
same,% remaining,"[4]; monkey plasma, 37° C., 0 h",100%
same,% remaining,"[4]; monkey plasma, 37° C., 1 h",106%
same,% remaining,"[4]; monkey plasma, 37° C., 2 h",111%
same,% remaining,"[4]; monkey plasma, 37° C., 4 h",68.1%
same,% remaining,"[4]; monkey plasma, 37° C., 8 h",76.0%
same,% remaining,"[4]; monkey plasma, 37° C., 21 h",22.4%
same,% remaining,"[4]; monkey plasma, 37° C., 44 h",13.8%
same,% remaining,"[5]; human plasma, 37° C., 0 h",100%
same,% remaining,"[5]; human plasma, 37° C., 1 h",102%
same,% remaining,"[5]; human plasma, 37° C., 2 h",98.0%
same,% remaining,"[5]; human plasma, 37° C., 4 h",61.8%
same,% remaining,"[5]; human plasma, 37° C., 8 h",72.0%
same,% remaining,"[5]; human plasma, 37° C., 21 h",51.2%
same,% remaining,"[5]; human plasma, 37° C., 44 h",7.3%
same,Half-life,"[6]; in vivo, iv, 1 mg/kg, read-out: Half-life (converted)",30 h
same,Half-life,[7]; [9],8 h
same,% remaining,"Stability in rat plasma; rat plasma, 37° C., 0 h",100%
same,% remaining,"Stability in rat plasma; rat plasma, 37° C., 1 h",84.3%
same,% remaining,"Stability in rat plasma; rat plasma, 37° C., 2 h",76.5%
same,% remaining,"Stability in rat plasma; rat plasma, 37° C., 4 h",45.6%
same,% remaining,"Stability in rat plasma; rat plasma, 37° C., 8 h",23.2%
same,% remaining,"Stability in rat plasma; rat plasma, 37° C., 21 h",7.3%
same,% remaining,"Stability in rat plasma; rat plasma, 37° C., 44 h",7.4%
same,Mean clearance,[8],0.785 mL/min/kg
same,T1/2,[8],11.6 h
same,Volume of Distribution,[8],0.779 L/kg
same,AUC,"[8]; dog, in vivo, read-out: AUC",27800 ng·h/mL
same,Cmax,"[8]; dog, in vivo, read-out: Cmax",3230 ng/mL
CC(=O)[O-].CCCCCOc1ccc(-c2ccc(-c3ccc(C(=O)NC4CC(O)C(OCC[N+](C)(C)C)NC(=O)C5C(O)C(C)CN5C(=O)C(C(C)O)NC(=O)C(C(O)C(O)c5ccc(O)cc5)NC(=O)C5CC(O)CN5C(=O)C(C(C)O)NC4=O)cc3)cc2)cc1 (centres unmarked) [Compound 22],solubility,[1]; 90% Water:10% glycerol,>102.3 mg/mL
same,solubility,"[1]; Acetate buffer (0.01M, pH 4.5)",>145 mg/mL
same,solubility,"[1]; Acetate buffer (0.01M, pH 5.5)",>141 mg/mL
same,solubility,[1]; Sterile Water for injection,>142 mg/mL
same,solubility,"[1]; Tris buffer (0.01M, pH 8.5)",>138 mg/mL
same,Aqueous solubility compared with anidulafungin,[1]; variety of aqueous mediums,dramatically greater aqueous solubility than anidulafungin
same,Half-life,[2],30 h
same,% remaining,"Stability in dog plasma; dog, plasma, 0 h",100%
same,% remaining,"Stability in dog plasma; dog, plasma, 1 h",97.9%
same,% remaining,"Stability in dog plasma; dog, plasma, 2 h",107%
same,% remaining,"Stability in dog plasma; dog, plasma, 4 h",119%
same,% remaining,"Stability in dog plasma; dog, plasma, 8 h",94.0%
same,% remaining,"Stability in dog plasma; dog, plasma, 21 h",87.3%
same,% remaining,"Stability in dog plasma; dog, plasma, 44 h",78.6%
same,% BA in saline,[3],3.50%
same,% BA,[3]; formulation 1,(8.21%)
same,Improvement (ratio of % oral bioavailability to saline),[3]; formulation 1,2.3
same,% BA,[3]; formulation 3,(9.76%)
same,Improvement (ratio of % oral bioavailability to saline),[3]; formulation 3,2.8
same,% BA,[3]; formulation 5,(12.3%)
same,Improvement (ratio of % oral bioavailability to saline),[3]; formulation 5,3.5
same,% BA,[3]; formulation 7,(12.2%)
same,Improvement (ratio of % oral bioavailability to saline),[3]; formulation 7,3.5
same,Improvement (ratio of % oral bioavailability to saline),[3]; formulation 8,NI
same,Improvement (ratio of % oral bioavailability to saline),[3]; formulation 9,NI
same,Improvement (ratio of % oral bioavailability to saline),[3]; formulation 10,NI
same,Improvement (ratio of % oral bioavailability to saline),[3]; formulation 12,NI
same,% BA,[3]; formulation 13,(8.80%)
same,Improvement (ratio of % oral bioavailability to saline),[3]; formulation 13,2.5
same,% BA,[3]; formulation 14,(15.0%)
same,Improvement (ratio of % oral bioavailability to saline),[3]; formulation 14,4.3
same,% BA,[3]; formulation 15,(13.4%)
same,Improvement (ratio of % oral bioavailability to saline),[3]; formulation 15,3.8
same,% BA,[3]; formulation 16,(5.50%)
same,Improvement (ratio of % oral bioavailability to saline),[3]; formulation 16,1.5
same,% BA,[3]; formulation 17,(11.8%)
same,Improvement (ratio of % oral bioavailability to saline),[3]; formulation 17,3.3
same,% remaining,"[4]; monkey, plasma, 0 h",100%
same,% remaining,"[4]; monkey, plasma, 1 h",109%
same,% remaining,"[4]; monkey, plasma, 2 h",110%
same,% remaining,"[4]; monkey, plasma, 4 h",143%
same,% remaining,"[4]; monkey, plasma, 8 h",115%
same,% remaining,"[4]; monkey, plasma, 21 h",104%
same,% remaining,"[4]; monkey, plasma, 44 h",93.5%
same,% remaining,"[5]; human, plasma, 0 h",100%
same,% remaining,"[5]; human, plasma, 1 h",98.5%
same,% remaining,"[5]; human, plasma, 2 h",101%
same,% remaining,"[5]; human, plasma, 4 h",125%
same,% remaining,"[5]; human, plasma, 8 h",97.5%
same,% remaining,"[5]; human, plasma, 21 h",95.7%
same,% remaining,"[5]; human, plasma, 44 h",93.3%
same,Half-life,[6],81 h
same,Half-life,[7],40 h
same,% remaining,"Stability in rat plasma; rat, plasma, 0 h",100%
same,% remaining,"Stability in rat plasma; rat, plasma, 1 h",103%
same,% remaining,"Stability in rat plasma; rat, plasma, 2 h",106%
same,% remaining,"Stability in rat plasma; rat, plasma, 4 h",138%
same,% remaining,"Stability in rat plasma; rat, plasma, 8 h",99.3%
same,% remaining,"Stability in rat plasma; rat, plasma, 21 h",96.5%
same,% remaining,"Stability in rat plasma; rat, plasma, 44 h",91.2%
same,AUC,[8],48700 ng·h/mL
same,Cmax,[8],1570 ng/mL
same,Mean clearance,[8],0.301 mL/min/kg
same,T1/2,[8],53.1 h
same,Volume of Distribution,[8],1.36 L/kg
